Activity calls are given as the source filed them. No cut-off for these calls is given here.
These compounds were tested against Mushroom tyrosinase (Agaricus bisporus) (UniProt O42713+Q00024+C7FF04+C7FF05) (assay: Inhibition of mushroom tyrosinase using L-DOPA as substrate at 50 uM preincubated for 10 mins followed by substrate addition measured after 20 mins by spectrophotometry). Settings: time 30.0 min.
Assay type: protein assay

Row | Structure (SMILES) | inhibition
1 | CC(C)=CCC/C(C)=C/Cc1c2c(c(O)c3c(=O)c(CC=C(C)C)c(-c4cc(C)c(O)cc4O)oc13)C=CC(C)(C)O2 | inactive
2 | C=C(C)c1cc2c(=O)c3c(O)c4c(c(CC=C(C)C)c3oc2c2c1[C@](O)(C(=O)OC)CC2=O)OC(C)(C)C=C4 | inactive
3 | C=C(C)c1cc2c(=O)c3c(O)c4c(c(C/C=C(\C)CCC=C(C)C)c3oc2c2c1[C@](O)(C(=O)OC)CC2=O)OC(C)(C)C=C4 | inactive
4 | C=CC(C)(C)/C=C/c1ccc(O)cc1 | inactive
5 | C=C(C)c1cc2c(=O)c3c(O)c(CC=C(C)C)c(O)c(C/C=C(\C)CCC=C(C)C)c3oc2c2c1[C@](O)(C(=O)OC)CC2=O | inactive
6 | CC(C)c1cc2c(O)cc(-c3cc4ccc(O)cc4o3)cc2o1 | inactive

Now from value to compound:

Row | inhibition | Structure (SMILES)
7 | inactive | CC(C)=CCc1c2c(c(O)c3c(=O)c4c(oc13)-c1c(O)cc(O)c3c1C(C4)C(C)(C)O3)C=CC(C)(C)O2 (stereo not given)
8 | inactive | COc1cc2c(c3oc(-c4cc(O)cc(O)c4)cc13)C=CC(C)(C)O2
9 | inactive | COc1cc(O)c2c(=O)c3c(oc2c1)-c1cc(O)c(OC)cc1OC3C=C(C)C (stereo not given)
10 | inactive | C=C(C)C1Cc2c(oc3cc(OC)cc(O)c3c2=O)-c2c(O)cc(OC)c(O)c21 (stereo not given)
11 | inactive | CC(C)=CC1Oc2cc(O)ccc2-c2oc3cc(O)cc(O)c3c(=O)c21 (stereo not given)
12 | inactive | COc1cc(O)c2c(c1)O[C@H](c1cc(OC)c(OC)cc1OC)CC2=O
13 | inactive | COc1cc2c(c3c1[C@H](C(C)(C)O)CC[C@@H]3c1ccc(O)cc1O)C=CC(C)(C)O2
14 | inactive | CC(C)=CCC/C(C)=C/Cc1c2c(c(O)c3c(=O)c4c(oc13)-c1c(O)cc(O)c3c1C(C4)C(C)(C)O3)C=CC(C)(C)O2 (stereo not given)
15 | inactive | COc1cc2c(cc1O)-c1oc3cc(O)cc(O)c3c(=O)c1C(C=C(C)C)O2 (stereo not given)
